Each compound was assayed on HBV (assay: HBV replication inhibition assay (BDNA assay) in HepG2.2.15 cells). Conditions: Hepatitis B virus, HepG2.2.15, 144 h, HepG2.2.15 cells, BDNA assay, encapsidated HBV DNA in supernatant at day 6; read-out: HepG2.2.15 EC50 HBV DNA.
Type: cell-based
Description: HBV replication inhibition by the disclosed compounds were determined in cells infected or transfected with HBV or cells with stably integrated HBV, such as HepG2.2.15 cells (Sells et al. 1987). In this example, HepG2.2.15 cells were maintained in cell culture medium containing 10% fetal bovine serum (FBS), Geneticin, L-glutamine, penicillin and streptomycin. HepG2.2.15 cells were seeded in 96-well plates at a density of 40,000 cells/well and were treated with serially diluted compounds at a final DMSO concentration of 0.5% either alone or in combination by adding drugs in a checker box format. Cells were incubated with compounds for three days, after which medium was removed and fresh medium containing compounds was added to cells and incubated for another three days. At day 6, supernatant was removed and treated with DNase at 37° C. for 60 minutes, followed by enzyme inactivation at 75° C. for 15 minutes. Encapsidated HBV DNA was released from the virions and covalently linked HBV polymerase by incubating in lysis buffer (Affymetrix QS0010) containing 2.5 μg proteinase K at 50° C. for 40 minutes. HBV DNA was denatured by addition of 0.2 M NaOH and detected using a branched DNA (BDNA) QuantiGene assay kit according to manufacturer recommendation (Affymetrix). HBV DNA levels were also quantified using qPCR, based on amplification of encapsidated HBV DNA extraction with QuickExtraction Solution (Epicentre Biotechnologies) and amplification of HBV DNA using HBV specific PCR probes that can hybridize to HBV DNA and a fluorescently labeled probe for quantitation. In addition, cell viability of HepG2.2.15 cells incubated with test compounds alone or in combination was determined by using CellTitre-Glo reagent according to the manufacturer protocol (Promega). The mean background signal from wells containing only culture medium was subtracted from all other samples, and percent inhibition at each compound concentration was calculated by normalizing to signals from HepG2.2.15 cells treated with 0.5% DMSO using equation E1.
% inhibition=(DMSOave−Xi)/DMSOave×100% E1
where DMSOave is the mean signal calculated from the wells that were treated with DMSO control (0% inhibition control) and Xi is the signal measured from the individual wells. EC50 values, effective concentrations that achieved 50% inhibitory effect, were determined by non-linear fitting using Graphpad Prism software (San Diego, Calif.) and equation E2.
Y=Ymin+(Ymax−Ymin)/(1+10(Log EC50−X)×HillSlope) E2
where Y represents percent inhibition values and X represents the logarithm of compound concentrations.
Selected disclosed compounds were assayed in the HBV replication assay (BDNA assay), as described above, and a representative group of these active compounds is shown in Table 3.
For `N#Cc1cc(NC(=O)N2CCc3nn4c(c3C2)C(F)(F)CCC(O)(CF)C4)ccc1F` (stereo not drawn) [Example 37, N-(3-Cyano-4-fluorophenyl)-11,11-difluoro-8-(fluoromethyl)-8-hydroxy-3,4,8,9,10,11-hexahydro-1H-pyrido[4′,3′:3,4]pyrazolo[1,5-a]azepine-2(7H)-carboxamide], the EC50 was 15 nM.
For `N#CCC1(O)CCC(F)(F)c2c3c(nn2C1)CCN(C(=O)Nc1ccc(F)c(C#N)c1)C3` (stereo not drawn) [Example 40, N-(3-Cyano-4-fluorophenyl)-8-(cyanomethyl)-11,11-difluoro-8-hydroxy-3,4,8,9,10,11-hexahydro-1H-pyrido[4′,3′:3,4]pyrazolo[1,5-a]azepine-2(7H)-carboxamide], the EC50 was 13 nM.
`N#Cc1cc(NC(=O)N2CCc3nn4c(c3C2)C(F)(F)CCC(F)(CO)C4)ccc1F` (stereo not drawn) [Example 45, N-(3-Cyano-4-fluorophenyl)-8,11,11-trifluoro-8-(hydroxymethyl)-3,4,8,9,10,11-hexahydro-1H-pyrido[4′,3′:3,4]pyrazolo[1,5-a]azepine-2(7H)-carboxamide] showed an EC50 of 5 nM.
For `O=C(Nc1ccnc(Br)c1F)N1CCc2nn3c(c2C1)C(F)(F)CCC(F)(CO)C3` (stereo not drawn) [Example 46, N-(2-Bromo-3-fluoropyridin-4-yl)-8,11,11-trifluoro-8-(hydroxymethyl)-3,4,8,9,10,11-hexahydro-1H-pyrido[4′,3′:3,4]pyrazolo[1,5-a]azepine-2(7H)-carboxamide], the EC50 was 12 nM.
`CC(=O)NCC1CCC(F)(F)c2c3c(nn2C1)CCN(C(=O)Nc1ccc(F)c(C#N)c1)C3` (stereo not drawn) [Example 49] showed an EC50 of 33 nM.
`CC(=O)NCC1CCC(F)(F)c2c3c(nn2C1)CCN(C(=O)Nc1ccnc(Br)c1F)C3` (stereo not drawn) [Example 50, 8-(Acetamidomethyl)-N-(2-bromo-3-fluoropyridin-4-yl)-11,11-difluoro-3,4,8,9,10,11-hexahydro-1H-pyrido[4′,3′:3,4]pyrazolo[1,5-a]azepine-2(7H)-carboxamide] gave an EC50 of 110 nM.
With `COC(=O)NCC1CCC(F)(F)c2c3c(nn2C1)CCN(C(=O)Nc1ccc(F)c(C#N)c1)C3` (stereo not drawn) [Example 53, Methyl ((2-((3-cyano-4-fluorophenyl)carbamoyl)-11,11-difluoro-2,3,4,7,8,9,10,11-octahydro-1H-pyrido[4′,3′:3,4]pyrazolo[1,5-a]azepin-8-yl)methyl)-carbamate] the EC50 was 10 nM.
Work on `COC(=O)NCC1CCC(F)(F)c2c3c(nn2C1)CCN(C(=O)Nc1ccnc(Br)c1F)C3` (stereo not drawn) [Example 54, Methyl ((2-((2-bromo-3-fluoropyridin-4-yl)carbamoyl)-11,11-difluoro-2,3,4,7,8,9,10,11-octahydro-1H-pyrido[4′,3′:3,4]pyrazolo[1,5-a]azepin-8-yl)methyl)-carbamate] yielded an EC50 of 8 nM.
Compound `C#CC1(O)CCC(F)(F)c2c3c(nn2C1)CCN(C(=O)Nc1ccc(F)c(C#N)c1)C3` (stereo not drawn) [Example 58, N-(3-Cyano-4-fluorophenyl)-8-ethynyl-11,11-di fluoro-8-hydroxy-3,4,8,9,10,11-hexahydro-1H-pyrido[4′,3′:3,4]pyrazolo[1,5-a]azepine-2(7H)-carboxamide] has an EC50 of 37 nM.
`C[C@@H]1Cc2nn3c(c2CN1C(=O)Nc1ccc(F)c(C#N)c1)C(F)(F)CC[C@@H](O)C3` [Example 67, (3R,8R)-N-(3-cyano-4-fluorophenyl)-11,11-difluoro-8-hydroxy-3-methyl-3,4,8,9,10,11-hexahydro-1H-pyrido[4′,3′:3,4]pyrazolo[1,5-a]azepine-2(7H)-carboxamide] gave an EC50 of 4 nM.
For `C[C@@H]1Cc2nn3c(c2CN1C(=O)Nc1ccnc(Br)c1F)C(F)(F)CC[C@@H](O)C3` [Example 68, (3R,8R)-N-(2-Bromo-3-fluoropyridin-4-yl)-11,11-di fluoro-8-hydroxy-3-methyl-3,4,8,9,10,11-hexahydro-1H-pyrido[4′,3′:3,4]pyrazolo[1,5-a]azepine-2(7H)-carboxamide], the EC50 was 21 nM.
With `C[C@@H]1Cc2nn3c(c2CN1C(=O)Nc1ccc(F)c(C(F)(F)F)c1)C(F)(F)CC[C@@H](O)C3` [Example 69, (3R,8R)-11,11-Difluoro-N-(4-fluoro-3-(trifluoromethyl)phenyl)-8-hydroxy-3-methyl-3,4,8,9,10,11-hexahydro-1H-pyrido[4′,3′:3,4]pyrazolo[1,5-a]azepine-2(7H)-carboxamide] the EC50 was 7 nM.
`C[C@@H]1Cc2nn3c(c2CN1C(=O)Nc1ccnc(C(F)F)c1F)C(F)(F)CC[C@@H](O)C3` [Example 70, (3R,8R)-N-(2-(Difluoromethyl)-3-fluoropyridin-4-yl)-11,11-difluoro-8-hydroxy-3-methyl-3,4,8,9,10,11-hexahydro-1H-pyrido[4′,3′:3,4]pyrazolo[1,5-a]azepine-2(7H)-carboxamide] showed an EC50 of 31 nM.
`C[C@@H]1Cc2nn3c(c2CN1C(=O)Nc1ccc(F)c(C#N)c1)C(F)(F)CC[C@H](O)C3` [Example 71, (3R,8 S)-N-(3-Cyano-4-fluorophenyl)-11,11-difluoro-8-hydroxy-3-methyl-3,4,8,9,10,11-hexahydro-1H-pyrido[4′,3′:3,4]pyrazolo[1,5-a]azepine-2(7H)-carboxamide] was tested, and the EC50 was 2 nM.
With `C[C@@H]1Cc2nn3c(c2CN1C(=O)Nc1ccnc(Br)c1F)C(F)(F)CC[C@H](O)C3` [Example 72, (3R,8S)-N-(2-Bromo-3-fluoropyridin-4-yl)-11,11-difluoro-8-hydroxy-3-methyl-3,4,8,9,10,11-hexahydro-1H-pyrido[4′,3′:3,4]pyrazolo[1,5-a]azepine-2(7H)-carboxamide] the EC50 was 9 nM.
Compound `C[C@@H]1Cc2nn3c(c2CN1C(=O)Nc1ccc(F)c(C(F)(F)F)c1)C(F)(F)CC[C@H](O)C3` [Example 73, (3R,8S)-11,11-Difluoro-N-(4-fluoro-3-(trifluoromethyl)phenyl)-8-hydroxy-3-methyl-3,4,8,9,10,11-hexahydro-1H-pyrido[4′,3′:3,4]pyrazolo[1,5-a]azepine-2(7H)-carboxamide] has an EC50 of 2 nM.
`C[C@@H]1Cc2nn3c(c2CN1C(=O)Nc1ccnc(C(F)F)c1F)C(F)(F)CC[C@H](O)C3` [Example 74, (3R,8S)-N-(2-(Difluoromethyl)-3-fluoropyridin-4-yl)-11,11-difluoro-8-hydroxy-3-methyl-3,4,8,9,10,11-hexahydro-1H-pyrido[4′,3′:3,4]pyrazolo[1,5-a]azepine-2(7H)-carboxamide] was tested, and the EC50 was 11 nM.
Work on `C[C@@H]1Cc2nn3c(c2CN1C(=O)Nc1ccc(F)c(C#N)c1)C(F)(F)C[C@H](CO)CC3` [Example 131] yielded an EC50 of 3 nM.
For `C[C@@H]1Cc2nn3c(c2CN1C(=O)Nc1ccc(F)c(C#N)c1)C(F)(F)C(O)CCC3` (stereo partly drawn) [Example 143, (3R)-N-(3-Cyano-4-fluorophenyl)-11,11-difluoro-10-hydroxy-3-methyl-1,3,4,7,8,9,10,11-octahydro-2H-pyrido[4′,3′:3,4]pyrazolo[1,5-a]azepine-2-carboxamide], the EC50 was 154 nM.

Same assay, conditions: Hepatitis B virus, HepG2.2.15, 144 h, read-out: HepG2.2.15 EC50 HBV DNA
`N#Cc1cc(NC(=O)N2CCc3nn4c(c3C2)C(F)(F)CCC(CNC(=O)C(F)(F)F)C4)ccc1F` (stereo not drawn) [Example 51, N-(3-Cyano-4-fluorophenyl)-11,11-difluoro-8-((2,2,2-trifluoroacetamido)methyl)-3,4,8,9,10,11-hexahydro-1H-pyrido[4′,3′:3,4]pyrazolo[1,5-a]azepine-2(7H)-carboxamide] showed an EC50 of 32 nM.
In the case of `O=C(Nc1ccnc(Br)c1F)N1CCc2nn3c(c2C1)C(F)(F)CCC(CNC(=O)C(F)(F)F)C3` (stereo not drawn) [Example 52, N-(2-Bromo-3-fluoropyridin-4-yl)-11,11-difluoro-8-((2,2,2-trifluoroacetamido)methyl)-3,4,8,9,10,11-hexahydro-1H-pyrido[4′,3′:3,4]pyrazolo[1,5-a]azepine-2(7H)-carboxamide], the EC50 is reported as 102 nM.

— US20220235051A1, “DI-FLUORO AZEPANES AS HBV CAPSID ASSEMBLY MODULATORS” (priority 2019, published 2022)
